Measurements taken from patent EP4578856A1, “HETEROCYCLIC COMPOUND” (Ubience Inc., priority 2022, dated 2024).

How the values were obtained:
ROCK2 protein [1] = target: T1, ROCK2 protein (Homo sapiens, UniProt O75116); test: Degradation inducing activity of ROCK2 protein in HUVEC cells, Western blotting (Simple Western JESS); assay type: cell-based; parameters: endogenous in cells; host or cells: HUVEC (ATCC CRL-1730); conditions: HUVEC, 24 h; for inhibition at 1 µM: degradation rate at 1 µM; for inhibition at 10 µM: degradation rate at 10 µM
Method in brief: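 HUVEC cells treated 24 h with compound at 10 µM or 1 µM, then lysed; ROCK2 quantified by capillary Western (Simple Western JESS) using rabbit mAb D1B1, normalized to total loaded protein. Degradation rate (%) calculated relative to DMSO control set at 100%, binned A ≥75%, B 50–75%, C 25–50%, D <25%.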
Target sequence in this assay (O75116 whole entry): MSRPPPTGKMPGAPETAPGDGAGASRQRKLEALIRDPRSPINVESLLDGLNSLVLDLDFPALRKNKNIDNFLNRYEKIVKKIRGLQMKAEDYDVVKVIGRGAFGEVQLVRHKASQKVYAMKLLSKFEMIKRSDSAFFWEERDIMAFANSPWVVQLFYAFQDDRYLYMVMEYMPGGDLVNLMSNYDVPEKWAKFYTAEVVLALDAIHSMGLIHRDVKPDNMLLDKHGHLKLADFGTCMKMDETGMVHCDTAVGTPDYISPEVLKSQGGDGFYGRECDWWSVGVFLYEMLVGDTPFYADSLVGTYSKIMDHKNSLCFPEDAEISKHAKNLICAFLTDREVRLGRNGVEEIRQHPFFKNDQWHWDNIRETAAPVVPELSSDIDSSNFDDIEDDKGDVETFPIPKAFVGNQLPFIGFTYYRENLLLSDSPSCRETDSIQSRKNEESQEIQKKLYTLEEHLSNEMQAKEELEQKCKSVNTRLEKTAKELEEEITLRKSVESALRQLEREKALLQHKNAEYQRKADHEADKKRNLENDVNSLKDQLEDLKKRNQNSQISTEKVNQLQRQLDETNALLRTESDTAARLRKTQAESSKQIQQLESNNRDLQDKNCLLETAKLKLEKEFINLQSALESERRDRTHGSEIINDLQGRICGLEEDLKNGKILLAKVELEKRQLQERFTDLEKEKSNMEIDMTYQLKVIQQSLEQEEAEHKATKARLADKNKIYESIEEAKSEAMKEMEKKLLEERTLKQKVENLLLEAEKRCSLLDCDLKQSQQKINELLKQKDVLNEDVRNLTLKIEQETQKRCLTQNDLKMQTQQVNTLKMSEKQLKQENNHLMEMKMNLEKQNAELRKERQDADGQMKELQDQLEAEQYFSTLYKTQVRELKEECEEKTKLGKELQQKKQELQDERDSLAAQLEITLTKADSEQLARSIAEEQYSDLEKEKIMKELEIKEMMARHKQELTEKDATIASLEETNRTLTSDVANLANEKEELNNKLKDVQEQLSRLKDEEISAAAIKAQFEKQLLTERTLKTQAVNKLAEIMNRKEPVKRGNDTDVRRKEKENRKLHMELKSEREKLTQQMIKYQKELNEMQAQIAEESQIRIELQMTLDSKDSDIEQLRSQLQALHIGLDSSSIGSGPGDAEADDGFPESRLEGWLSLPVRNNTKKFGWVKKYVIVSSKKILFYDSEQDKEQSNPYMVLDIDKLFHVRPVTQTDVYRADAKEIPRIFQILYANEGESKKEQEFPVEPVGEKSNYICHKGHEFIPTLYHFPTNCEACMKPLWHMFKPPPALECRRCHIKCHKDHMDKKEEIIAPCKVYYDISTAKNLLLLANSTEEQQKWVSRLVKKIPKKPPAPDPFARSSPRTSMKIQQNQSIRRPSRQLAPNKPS

ROCK2 protein [2] = target: T1, ROCK2 protein; test: ROCK2 kinase inhibitory activity, mobility shift assay (MSA, Carna Biosciences); assay type: biochemical; parameters: GST (N); purchased Carna Biosciences, Inc; host or cells: baculovirus expression system; conditions: for IC50: ROCK2 kinase
Procedure: The ROCK2 kinase inhibitory activity was measured using a mobility shift assay (MSA) provided by Carna Biosciences, Inc.
The test compound was dissolved in DMSO and further diluted with DMSO to prepare a solution having a concentration 100 times the evaluation concentration. The solution was further diluted 25 times with an assay buffer (20 mmol/L HEPES, 0.01% Triton (registered trademark) X-100, 1 mmol/L DTT, pH 7.5) to obtain a test compound solution.
The human ROCK2 kinase was expressed by fusing the catalytic domain (1 to 553 amino acids of Accession No. NP_004841.2) with GST at the N-terminus using the baculovirus expression system. GST-ROCK2 was purified by glutathione sepharose chromatography.
A 4-fold concentration substrate (LIMKtide, 1000 nmol/L) /ATP (5 µmol/L)/metal solution (Mg, 5 mmol/L) was prepared with kit buffer (20 mmol/L HEPES, 0.01% Triton (registered trademark) X-100, 5 mmol/L DTT, pH 7.5). A 2-fold concentration kinase solution was prepared with assay buffer. 5 µL of a 4-fold concentration test compound solution, 5 µL of a 4-fold concentration substrate/ATP/metal solution, and 10 µL of a 2-fold concentration kinase solution were mixed in a well of a polypropylene 384 well plate, and the mixture was reacted at room temperature for 1 hour. 70 µL of termination buffer (127 mmol/L HEPES, 0.01% Triton (registered trademark) X-100, 26.7 mmol/L EDTA-2Na, 1% DMSO, pH 7.5) was added to stop the reaction. The substrate peptide and the phosphorylated peptide in the reaction solution were separated and quantified using a LabChip (trademark) system (Perkin Elmer).
The kinase reaction was evaluated by the product ratio (P/(P + S)) calculated from the substrate peptide peak height (S) and the phosphorylated peptide peak height (P).
The average signal of the control well including all the reaction components was set to 0% suppression, the average signal of the background well (no enzyme added) was set to 100% suppression, and the inhibition rate was calculated from the average signal of the test compound test well.
The ROCK2 inhibition rate and the evaluation concentration of the test compound are shown in Table 4-1, and the IC50 value of the inhibitory activity is shown in Table 4-2. […]
Target sequence in this assay (O75116 1-553): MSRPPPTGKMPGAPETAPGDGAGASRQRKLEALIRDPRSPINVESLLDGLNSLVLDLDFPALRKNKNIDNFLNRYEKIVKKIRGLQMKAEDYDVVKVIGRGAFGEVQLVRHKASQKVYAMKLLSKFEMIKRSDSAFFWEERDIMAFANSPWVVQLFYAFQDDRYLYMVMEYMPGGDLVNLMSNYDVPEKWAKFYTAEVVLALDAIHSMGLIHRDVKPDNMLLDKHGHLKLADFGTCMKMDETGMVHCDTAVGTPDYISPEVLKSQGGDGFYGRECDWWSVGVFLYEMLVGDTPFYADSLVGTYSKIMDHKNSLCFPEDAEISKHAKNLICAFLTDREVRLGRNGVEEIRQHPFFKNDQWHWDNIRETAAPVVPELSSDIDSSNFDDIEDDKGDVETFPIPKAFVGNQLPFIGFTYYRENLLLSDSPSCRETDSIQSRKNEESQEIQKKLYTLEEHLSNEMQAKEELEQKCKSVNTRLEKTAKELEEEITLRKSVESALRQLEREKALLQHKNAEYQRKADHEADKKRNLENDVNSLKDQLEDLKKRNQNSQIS

In the case of `COC[C@H]1CN[C@H](C)CN1CC(=O)N1CC(C)(C)c2ncc(Cc3ccccc3OCCOCCOCCOCCNC[C@@H](C(=O)Nc3ccc4cnccc4c3)c3ccccc3)cc21` [Example 80, (S)-N-(Isoquinolin-6-yl)-1-(2-((1-(2-((2R,5R)-2-(methoxymethyl)-5-methylpiperazin-1-yl)acetyl)-3,3-dimethyl-2,3-dihydro-1H-pyrrolo[3,2-b]pyridin-6-yl)methyl)phenoxy)-14-phenyl-3,6,9-trioxa-12-azapentadecan-15-amide], the inhibition at 1 µM (ROCK2 protein [1]) is reported as 50 to 75%, the inhibition at 10 µM (ROCK2 protein [1]) is reported as ≥ 75% and the inhibition at 0.03 µM (ROCK2 protein [2]; evaluation concentration 0.03 µM, read-out: ROCK2 inhibition rate) is reported as 25 to 50%.
`COCCOCCCNC[C@@H](C(=O)Nc1ccc2cnccc2c1)c1ccccc1` [Ref.Example 15, (S)-N-(Isoquinolin-6-yl)-3-((3-(2-methoxyethoxy)propyl)amino)-2-phenylpropanamide, reference compound] was tested, and the IC50 (ROCK2 protein [2]) was < 30 nM.
For `COCCOCCN[C@H](C)c1ccc(C(=O)Nc2ccncc2)cc1` [Ref.Example 10, (R)-4-(1-((2-(2-Methoxyethoxy)ethyl)amino)ethyl)-N-(pyridin-4-yl)benzamide, reference compound], the IC50 (ROCK2 protein [2]) was 3000 to 10000 nM.
Work on `COCCOCCCN[C@H](Cc1cccc(F)c1)C(=O)Nc1ccc(-c2ccncc2)cc1` [Ref.Example 13, (R)-3-(3-Fluorophenyl)-2-((3-(2-methoxyethoxy)propyl)amino)-N-(4-(pyridin-4-yl)phenyl)propanamide, reference compound] yielded an IC50 (ROCK2 protein [2]) of 30 to 300 nM.
With `COCCOCCCN[C@H](C)c1ccc(C(=O)Nc2ccncc2)cc1` [Ref.Example 11, (R)-4-(1-((3-(2-Methoxyethoxy)propyl)amino)ethyl)-N-(pyridin-4-yl)benzamide, reference compound] the IC50 (ROCK2 protein [2]) was 3000 to 10000 nM.
In the case of `COCCOCCNC[C@@H](C(=O)Nc1ccc2cnccc2c1)c1ccccc1` [Ref.Example 14, (S)-N-(Isoquinolin-6-yl)-3-((2-(2-methoxyethoxy)ethyl)amino)-2-phenylpropanamide, reference compound], the IC50 (ROCK2 protein [2]) is reported as < 30 nM.
`COCCOCCN[C@H](Cc1cccc(F)c1)C(=O)Nc1ccc(-c2ccncc2)cc1` [Ref.Example 12, (R)-3-(3-Fluorophenyl)-2-((2-(2-methoxyethoxy)ethyl)amino)-N-(4-(pyridin-4-yl)phenyl)propanamide, reference compound] gave an IC50 (ROCK2 protein [2]) of 300 to 3000 nM.
With `C[C@@H]1CN(CC(=O)N2CC(C)(C)c3ncc(Cc4ccc(F)cc4)cc32)[C@@H](CN(C)CCOCCOCCOCCOCCOCCN[C@H](Cc2cccc(F)c2)C(=O)Nc2ccc(-c3ccncc3)cc2)CN1` [Example 12, (R)-21-(3-Fluorobenzyl)-1-((2R,5R)-1-(2-(6-(4-fluorobenzyl)-3,3-dimethyl-2,3-dihydro-1H-pyrrolo[3,2-b]pyridin-1-yl)-2-oxoethyl)-5-methylpiperazin-2-yl)-2-methyl-N-(4-(pyridin-4-yl)phenyl)-5,8,11,14,17-pentaoxa-2,20-diazadocosan-22-amide] the inhibition at 1 µM (ROCK2 protein [1]) was < 25% and the inhibition at 10 µM (ROCK2 protein [1]) was 25 to 50%.
In the case of `COC[C@H]1CN[C@H](C)CN1CC(=O)N1CC(C)(C)c2ncc(Cc3ccccc3OCCOCCOCCOCCOCCOCCN[C@H](C)c3ccc(C(=O)Nc4ccncc4)cc3)cc21` [Example 68, 4-((R)-20-(2-((1-(2-((2R,5R)-2-(Methoxymethyl)-5-methylpiperazin-1-yl)acetyl)-3,3-dimethyl-2,3-dihydro-1H-pyrrolo[3,2-b]pyridin-6-yl)methyl)phenoxy)-6,9,12,15,18-pentaoxa-3-azaicosan-2-yl)-N-(pyridin-4-yl)benzamide], the inhibition at 1 µM (ROCK2 protein [1]) is reported as ≥ 75%.
`C[C@@H]1CN(CC(=O)N2CC(C)(C)c3ncc(Cc4ccc(F)cc4)cc32)[C@@H](CN(C)CCOCCOCCOCCOCCOCCOCCN[C@H](Cc2cccc(F)c2)C(=O)Nc2ccc(-c3ccncc3)cc2)CN1` [Example 13, (R)-24-(3-Fluorobenzyl)-1-((2R,5R)-1-(2-(6-(4-fluorobenzyl)-3,3-dimethyl-2,3-dihydro-1H-pyrrolo[3,2-b]pyridin-1-yl)-2-oxoethyl)-5-methylpiperazin-2-yl)-2-methyl-N-(4-(pyridin-4-yl)phenyl)-5,8,11,14,17,20-hexaoxa-2,23-diazapentacosan-25-amide] was tested, and the inhibition at 1 µM (ROCK2 protein [1]) was < 25% and the inhibition at 10 µM (ROCK2 protein [1]) was < 25%.
For `COC[C@H]1CN[C@H](C)CN1CC(=O)N1CC(C)(C)c2nc(CN(C)CCOCCOCCOCCOCCOCCN[C@H](Cc3cccc(F)c3)C(=O)Nc3ccc(-c4ccncc4)cc3)c(Cc3ccc(F)cc3)cc21` [Example 33, (R)-21-(3-Fluorobenzyl)-1-(6-(4-fluorobenzyl)-1-(2-((2R,5R)-2-(methoxymethyl)-5-methylpiperazin-1-yl)acetyl)-3,3-dimethyl-2,3-dihydro-1H-pyrrolo[3,2-b]pyridin-5-yl)-2-methyl-N-(4-(pyridin-4-yl)phenyl)-5,8,11,14,17-pentaoxa-2,20-diazadocosan-22-amide], the inhibition at 1 µM (ROCK2 protein [1]) was < 25% and the inhibition at 10 µM (ROCK2 protein [1]) was ≥ 75%.
In the case of `COC[C@H]1CN[C@H](C)CN1CC(=O)N1CC(C)(C)c2nc(CN(C)CCOCCOCCOCCOCCOCCOCCN[C@H](C)c3ccc(C(=O)Nc4ccncc4)cc3)c(Cc3ccc(F)cc3)cc21` [Example 27, 4-((R)-1-(6-(4-Fluorobenzyl)-1-(2-((2R,5R)-2-(methoxymethyl)-5-methylpiperazin-1-yl)acetyl)-3,3-dimethyl-2,3-dihydro-1H-pyrrolo[3,2-b]pyridin-5-yl)-2-methyl-5,8,11,14,17,20-hexaoxa-2,23-diazapentacosan-24-yl)-N-(pyridin-4-yl)benzamide], the inhibition at 1 µM (ROCK2 protein [1]) is reported as < 25% and the inhibition at 10 µM (ROCK2 protein [1]) is reported as < 25%.
In the case of `COC[C@H]1CN[C@H](C)CN1CC(=O)N1CC(C)(C)c2ncc(Cc3ccccc3OCCOCCOCCOCCOCCOCCOCCNC[C@@H](C(=O)Nc3ccc4cnccc4c3)c3ccccc3)cc21` [Example 83, (S)-N-(Isoquinolin-6-yl)-1-(2-((1-(2-((2R,5R)-2-(methoxymethyl)-5-methylpiperazin-1-yl)acetyl)-3,3-dimethyl-2,3-dihydro-1H-pyrrolo[3,2-b]pyridin-6-yl)methyl)phenoxy)-23-phenyl-3,6,9,12,15,18-hexaoxa-21-azatetracosan-24-amide], the inhibition at 1 µM (ROCK2 protein [1]) is reported as 50 to 75% and the inhibition at 10 µM (ROCK2 protein [1]) is reported as ≥ 75%.
In the case of `COC[C@H]1CN[C@H](C)CN1CC(=O)N1CC(C)(C)c2ncc(Cc3ccccc3OCCOCCOCCNC[C@@H](C(=O)Nc3ccc4cnccc4c3)c3ccccc3)cc21` [Example 79, (S)-N-(Isoquinolin-6-yl)-3-((2-(2-(2-(2-((1-(2-((2R,5R)-2-(methoxymethyl)-5-methylpiperazin-1-yl)acetyl)-3,3-dimethyl-2,3-dihydro-1H-pyrrolo[3,2-b]pyridin-6-yl)methyl)phenoxy)ethoxy)ethoxy)ethyl)amino)-2-phenylpropanamide], the inhibition at 1 µM (ROCK2 protein [1]) is reported as ≥ 75% and the inhibition at 10 µM (ROCK2 protein [1]) is reported as ≥ 75%.
`COC[C@H]1CN[C@H](C)CN1CC(=O)N1CC(C)(C)c2ncc(Cc3cccc(OCCOCCOCCOCCOCCOCCOCCOCCNC[C@@H](C(=O)Nc4ccc5cnccc5c4)c4ccccc4)c3)cc21` [Example 63, (S)-N-(Isoquinolin-6-yl)-1-(3-((1-(2-((2R,5R)-2-(methoxymethyl)-5-methylpiperazin-1-yl)acetyl)-3,3-dimethyl-2,3-dihydro-1H-pyrrolo[3,2-b]pyridin-6-yl)methyl)phenoxy)-26-phenyl-3,6,9,12,15,18,21-heptaoxa-24-azaheptacosan-27-amide] was tested, and the inhibition at 1 µM (ROCK2 protein [1]) was < 25% and the inhibition at 10 µM (ROCK2 protein [1]) was 50 to 75%.
In the case of `COC[C@H]1CN[C@H](C)CN1CC(=O)N1CC(C)(C)c2ncc(Cc3ccccc3OCCOCCOCCOCCOCCNC[C@@H](C(=O)Nc3ccc4cnccc4c3)c3ccccc3)cc21` [Example 81, (S)-N-(Isoquinolin-6-yl)-1-(2-((1-(2-((2R,5R)-2-(methoxymethyl)-5-methylpiperazin-1-yl)acetyl)-3,3-dimethyl-2,3-dihydro-1H-pyrrolo[3,2-b]pyridin-6-yl)methyl)phenoxy)-17-phenyl-3,6,9,12-tetraoxa-15-azaoctadecan-18-amide], the inhibition at 1 µM (ROCK2 protein [1]) is reported as 50 to 75% and the inhibition at 10 µM (ROCK2 protein [1]) is reported as 25 to 50%.
